Data on 21 compounds can be found in patent US20240199572A1, “COMPOUNDS, COMPOSITIONS, AND METHODS FOR TREATING TYPE 2 DIABETES AND DEMENTIA” (THE BOARD OF TRUSTEES OF THE UNIVERSITY OF ILLINOIS, priority 2021, published 2024).

One data set deals with ABCA1 mRNA. Nature of the data set: ABCA1 mRNA - HepG2 (qRT-PCR). In kind it is cell-based, human. The conditions noted are these: Homo sapiens; ABCA1 mRNA-HepG2 assay (Table 7). The source says: qRT-PCR. For cell samples, treated cells were lysed with RLT plus lysis buffer (Qiagen). RNA was isolated with Qiagen RNEASY® Plus columns per manufacturer instructions, then reverse-transcribed to cDNA using […]® III Reverse Transcriptase (200 U/μL, Invitrogen) per supplier protocol. qPCR experiments were either performed with TAQMAN® gene expression master mix (Invitrogen) on a StepOne™ qPCR instrument or with […]® SYBR® Green SuperMix (Quanta Biosciences) on CFX Connect™ Real-Time PCR Detection System (BioRad), with fold-change quantified by ΔΔCt. For animal samples, 100 mg tissue was homogenized in 1 mL acid-guanidinium-phenol based reagent sold under the tradename TRIZOL® (Ambion), mixed vigorously in chloroform, and separated by centrifugation. Aqueous layer containing RNA was added to Qiagen RNEASY® Plus column; remaining stops were as described above for cell lysates.
A general note: In qPCR the cycle at which signal appears reflects the starting amount.

The next data set relates to ABCA1. Nature of the data set: ABCA1 firefly reporter assay in CCF-001 cells. In kind it is cell-based. The conditions noted are these: ABCA1 firefly reporter assay in CCF-001 cells (Table 8). In general terms: In a reporter assay the amount or activity of a reporter protein is the signal.
Another data set deals with CD1 mice. Nature of the data set: CD1 mice, three daily p.o. treatments, LXR agonist adverse effects. In kind it is in vivo, mouse. The conditions noted are these: 10 mg/kg p.o., three days. The text has this:
Neutrophil Counts. […] After final dose, blood samples were run on an Advia 120 analyzer (Bayer) for neutrophil counts.

pEC50: −log10 of the molar value.

By pEC50 is commonly meant the negative decadic logarithm of the EC50, by convention in mol/L. A higher pEC50 goes with a small EC50. `CCOc1ccc(N(C)S(=O)(=O)c2ccsc2C(=O)Nc2cccc(C(=O)OC)c2)cc1` [CL1-87, Methyl 3-(3-(N-(4-ethoxyphenyl)-N-methylsulfamoyl)thiophene-2-carboxamido) benzoate]: the negative-log EC50 (pEC50) was under 5.30 in the data set with ABCA1 mRNA and 5.40 with ABCA1. Take `CCOC(=O)c1cccc(NC(=O)c2sccc2S(=O)(=O)N(C)c2cccc(OCC)c2)c1` [CL2-1, Ethyl 3-(3-(N-(3-ethoxyphenyl)-N-methylsulfamoyl)thiophene-2-carboxamido)benzoate]: the pEC50 with ABCA1 mRNA was under 5.30; in the data set on ABCA1 it was 5.33. In the same order, the values of `CCCOc1ccc(N(C)S(=O)(=O)c2ccsc2C(=O)Nc2cccc(C(=O)OCC)c2)cc1` [CL2-16, Ethyl 3-(3-(N-methyl-N-(4-propoxyphenyl)sulfamoyl)thiophene-2-carboxamido) benzoate] are 5.46 and 5.63. Taken in the same sequence, the figures for `CCOc1ccc(N(C)S(=O)(=O)c2cc(Cl)sc2C(=O)Nc2cccc(S(C)(=O)=O)c2)cc1OCC` [CL2-63, 5-Chloro-3-(N-(3,4-diethoxyphenyl)-N-methylsulfamoyl)-N-(3-(methylsulfonyl)phenyl)thiophene-2-carboxamide] were 5.32 and 4.90. Taken in the same sequence, the figures for `CCOC(=O)c1cccc(NC(=O)c2sc(Cl)cc2S(=O)(=O)N(C)c2ccc(OCC)c(OC)c2)c1` [CL2-85, Ethyl 3-(5-chloro-3-(N-(4-ethoxy-3-methoxyphenyl)-N-methylsulfamoyl)thiophene-2-carboxamido)benzoate] were 5.96 and 6.72. Consider `CCOC(=O)c1cccc(NC(=O)c2sc(Cl)cc2S(=O)(=O)N(C)c2ccc(OCC)cc2F)c1` [CL2-143, Ethyl 3-(5-chloro-3-(N-(4-ethoxy-2-fluorophenyl)-N-methylsulfamoyl)thiophene-2-carboxamido)benzoate], for which the values for the pEC50 in the data set with ABCA1 mRNA and in the data set with ABCA1 were 5.46 and 5.79, respectively. Taken in the same sequence, the figures for `CCOC(=O)c1cccc(NC(=O)c2sc(Cl)cc2S(=O)(=O)N(C)c2ccc(OCC)nc2)c1` [CL2-159, Ethyl 3-(5-chloro-3-(N-(6-ethoxypyxidin-3-yl)-N-methylsulfamoyl)thiophene-2-carboxamido)benzoate] were under 5.30 and 5.27. For `CCOc1ccc(N(C)S(=O)(=O)c2cc(Cl)sc2C(=O)Nc2cccc(C(=O)OCCOC)c2)cc1OCC` [CL2-167, 2-Methoxyethyl 3-(5-chloro-3-(N-(3,4-diethoxyphenyl)-N-methylsulfamoyl)thiophene-2-carboxamido) benzoate], the pEC50 was 5.30 in the data set on ABCA1 mRNA and 5.66 in the data set on ABCA1. Taken in the same sequence, the figures for `CCOc1ccc(N(C)S(=O)(=O)c2cc(Cl)sc2C(=O)Nc2cccc(C(=O)OCCOCCOC)c2)cc1OCC` [CL2-168, 2-(2-Methoxyethoxy) ethyl 3-(5-chloro-3-(N-(3,4-diethoxyphenyl)-N-methylsulfamoyl)thiophene-2-carboxamido) benzoate] were 5.44 and 5.87. For the compound `CCOC(=O)c1cccc(NC(=O)c2sc(Cl)cc2S(=O)(=O)N(C)c2ccc(N(C)C)cc2)c1` [CL2-181, Ethyl 3-(5-chloro-3-(N-(4-(dimethylamino)phenyl)-N-methylsulfamoyl)thiophene-2-carboxamido)benzoate], the pEC50 in the data set on ABCA1 mRNA and in the data set with ABCA1 was 5.30 in each case. `CCOC(=O)c1cccc(NC(=O)c2sc(Cl)cc2S(=O)(=O)N(C)c2cnc(OCC)c(F)c2)c1` [CL2-184, Ethyl 3-(5-chloro-3-(N-(6-ethoxy-5-fluoropyridin-3-yl)-N-methylsulfamoyl)thiophene-2-carboxamido)benzoate]: the pEC50 in the data set on ABCA1 mRNA is 5.35; with ABCA1, 5.31. In the same order, the values of `CCOC(=O)c1cc(Cl)cc(NC(=O)c2sc(Cl)cc2S(=O)(=O)N(C)c2ccc(OCC)c(OCC)c2)c1` [CL2-187, Ethyl 3-chloro-5-(5-chloro-3-(N-(3,4-diethoxyphenyl)-N-methylsulfamoyl)thiophene-2-carboxamido) benzoate] are 6.09 and 6.61.

`CCOC(=O)c1cc(N)cc(NC(=O)c2sc(Cl)cc2S(=O)(=O)N(C)c2ccc(OCC)c(OCC)c2)c1` [CL2-191, Ethyl 3-amino-5-(5-chloro-3-(N-(3,4-diethoxyphenyl)-N-methylsulfamoyl)thiophene-2-carboxamido)benzoate]: the results for the pEC50 in the data set with ABCA1 mRNA and with ABCA1 were under 5.30 and 5.07, respectively. In turn, `CCOC(=O)c1cccc(NC(=O)c2sc(Cl)cc2S(=O)(=O)N(C)c2ccc(OCC)c(OCC)c2)n1` [CL3-2, Ethyl 6-(5-chloro-3-(N-(3,4-diethoxyphenyl)-N-methylsulfamoyl)thiophene-2-carboxamido)picolinate] showed a negative logarithm of the EC50 (pEC50) in the data set with ABCA1 mRNA of under 5.30. On to `CCOC(=O)c1cc(Cl)cc(NC(=O)c2sc(Cl)cc2S(=O)(=O)N(C)c2ccc(OC)c(OC)c2)c1` [CL3-9, Ethyl 3-chloro-5-(5-chloro-3-(N-(3,4-dimethoxyphenyl)-N-methylsulfamoyl)thiophene-2-carboxamido)benzoate], for which the results for the pEC50 with ABCA1 mRNA and in the data set on ABCA1 were 5.92 and 6.28, respectively. Taken in the same sequence, the figures for `CCOc1ccc(N(C)S(=O)(=O)c2cc(Cl)sc2C(=O)Nc2cc(Cl)cc(C(=O)OC)c2)cc1OC` [CL3-10, Methyl 3-chloro-5-(5-chloro-3-(N-(4-ethoxy-3-methoxyphenyl)-N-methylsulfamoyl)thiophene-2-carboxamido)benzoate] were 5.96 and 6.47. As to `CCOc1ccc(N(C)S(=O)(=O)c2cc(Cl)sc2C(=O)Nc2cc(Cl)cc(C(=O)OCCOC)c2)cc1OC` [CL3-11, 2-Methoxyethyl 3-chloro-5-(5-chloro-3-(N-(4-ethoxy-3-methoxyphenyl)-N-methylsulfamoyl)thiophene-2-carboxamido)benzoate], the values for the negative-log EC50 (pEC50) with ABCA1 mRNA and in the data set with ABCA1 were 6.38 and 7.18, respectively.

As for `CCOc1ccc(N(C)S(=O)(=O)c2cc(Cl)sc2C(=O)Nc2cc(Cl)cc(C(=O)OCCOCCOC)c2)cc1OC` [CL3-12, 2-(2-Methoxyethoxy) ethyl 3-chloro-5-(5-chloro-3-(N-(4-ethoxy-3-methoxyphenyl)-N-methylsulfamoyl)thiophene-2-carboxamido)benzoate], the results for the negative logarithm of the EC50 (pEC50) with ABCA1 mRNA and in the data set on ABCA1 were 6.38 and 6.86, respectively. `O=S(=O)(c1ccccc1)N(CC(F)(F)F)c1ccc(C(O)(C(F)(F)F)C(F)(F)F)cc1` [Compound T0901317, reference compound]: in the data set with CD1 mice, the Circulating neutrophil levels result is recorded as “reduced” and the “Plasma TG” value is listed as “increased”. In the case of `CCOC(=O)c1cc(F)cc(NC(=O)c2sc(Cl)cc2S(=O)(=O)N(C)c2ccc(OCC)c(OC)c2)c1` [GR1-053, Ethyl 3-(5-chloro-3-(N-(4-ethoxy-3-methoxyphenyl)-N-methylsulfamoyl)thiophene-2-carboxamido)-5-fluorobenzoate], the pEC50 in the data set with ABCA1 mRNA is 6.62; in the data set on ABCA1, 7.54.

In the case of `CCOc1ccc(N(C)S(=O)(=O)c2cc(Cl)sc2C(=O)Nc2cccc(C(=O)OC)c2)cc1` [KB7-123, Methyl 3-(5-chloro-3-(N-(4-ethoxyphenyl)-N-methylsulfamoyl)thiophene-2-carboxamido)benzoate], the pEC50 in the data set on ABCA1 mRNA was 5.48; with ABCA1, 5.83.
